Measurements taken from BigSolDB 2.1.

CN(CCOc1ccc(CC2SC(=O)NC2=O)cc1)c1ccccn1 (configuration not stated)
solubility (mole fraction)
Settings	in acetone	in acetonitrile	in ethanol	in ethyl acetate	in isopropanol	in methanol	in methyl acetate	in n-butanol	in n-butyl acetate	in n-propanol
283.15 K	0.00177	0.000267	0.000245	0.00123	0.00013	0.000139	0.00123	0.000341	0.000926	0.000276
293.15 K	0.00278	0.000453	0.000341	0.00205	0.000173	–	0.00205	0.000371	0.00117	0.00028
303.15 K	0.00455	0.000744	0.000458	0.003	0.000282	0.000444	0.00335	0.00042	0.00235	0.000323
313.15 K	0.00691	0.00126	0.00067	0.00441	0.000529	0.000745	0.0052	0.00063	0.00355	0.000741
323.15 K	0.00992	–	0.00124	0.00649	0.000992	0.00132	0.00795	0.00147	0.00505	0.00133
333.15 K	–	0.00352	0.00244	0.0118	0.00218	0.00235	0.0126	0.00293	0.0092	0.0029
